Results as given in PMC12406253, “Exploration of the Neuromodulatory Properties of Fyn and GSK-3β Kinases Exploiting 7‑Azaindole-Based Inhibitors” (Journal of Medicinal Chemistry, 2025).

Assays:
[1] = target: GSK3β(h) (Homo sapiens, UniProt P49841); experiment: Eurofins KinaseProfiler radiometric kinase assay; conditions: read-out: GSK3β(h) % Residual activity
[2] = system: neurospheres (NPCs from the subventricular zone); experiment: Neurosphere growth analysis (NPC proliferation); type: cell-based, mice; conditions: 0.1, 1, and 5 μM; 7 days
Description: Based on that, we further investigated the neurogenic and differentiation potential of our kinase inhibitors in cell culture of neurospheres, which are floating pools of NPCs coming from the subventricular zone (SVZ) of six-month-old mice. Particularly, we first analyzed the variation, during 7 days, in number and size of neurosphere population with and without treatment.
To investigate the effect of compounds of interest in neurospheres’ growth rate, single spheres were plated in suspension in 96-well plates (5 × 10^3 cells/well) in the presence of compounds (0.1 μM, 1 μM, and 5 μM) in complete DMEM F-12 culture medium. One image/well was acquired every day by using the Sartorius Incucyte Live-Cell Analysis System and evaluated through the Brightfield Spheroid Analysis Software Module. Only aggregates with areas larger than 400 μm^2 were considered for statistical analysis.

[3] = BBB permeability in hCMEC/D3 transwell model; conditions: human
Description: To this aim, the immortalized human brain endothelial cell line (hCMEC/D3) was used since it mimics the brain endothelium-restricted permeability and expresses most of the transporters and receptors present in vivo, constituting a valuable in vitro model of the human BBB crossing system.
BBB permeability assay was conducted as described in Albertini et al. The brain microvascular endothelial cells (hCMEC/D3) were seeded at the density of 5 × 10^4 cells per cm^2 in the upper compartment of Transwell filters (polyester, pore size 0.4 μm, 12-well tissue culture transwell; Corning), precoated with rat tail collagen type I (0.1 mg/mL; Roche). They were grown for 7 days up to confluence in Endothelial Cell Growth Medium 2 (Promocell), supplemented with penicillin/streptomycin 100 U/mL, in a humidified, 5% CO2 incubator at 37 °C. Confluent monolayers were washed in prewarmed HBSS buffer, and the selected compounds were added to the apical (AP) side at a concentration of 100 μM. […] Samples (100 μL) were collected from the BL side at different time points (15, 30, 60, and 90 min) and then replaced with the corresponding volume of HBSS buffer. […] The concentration of compounds was determined using a Ultimate 3000 HPLC system (ThermoFisher) with UV–vis detection at the maximum absorption wavelength of each compound except for inulin as determined by a spectrophotometric method using a Tecan Sunrise absorbance microplate reader. […] The permeability coefficient (Papp) was calculated as follows: Papp = (ΔQ/Δt)/(C [donor] × A), where ΔQ/Δt represents the permeation rate (mol/s), C [donor] is the initial compound concentration in the donor compartment at time 0 (mol/cm^3), and A represents the surface area of the filter (1.12 cm^2).

[4] = target: FYNα (Homo sapiens, UniProt P06241); experiment: Fyn kinetics, ATP competition (Lineweaver–Burk); conditions: 0.05 and 0.3 μM compound; ATP 1.5 to 24 μM
Sequence of FYNα (P06241 whole entry): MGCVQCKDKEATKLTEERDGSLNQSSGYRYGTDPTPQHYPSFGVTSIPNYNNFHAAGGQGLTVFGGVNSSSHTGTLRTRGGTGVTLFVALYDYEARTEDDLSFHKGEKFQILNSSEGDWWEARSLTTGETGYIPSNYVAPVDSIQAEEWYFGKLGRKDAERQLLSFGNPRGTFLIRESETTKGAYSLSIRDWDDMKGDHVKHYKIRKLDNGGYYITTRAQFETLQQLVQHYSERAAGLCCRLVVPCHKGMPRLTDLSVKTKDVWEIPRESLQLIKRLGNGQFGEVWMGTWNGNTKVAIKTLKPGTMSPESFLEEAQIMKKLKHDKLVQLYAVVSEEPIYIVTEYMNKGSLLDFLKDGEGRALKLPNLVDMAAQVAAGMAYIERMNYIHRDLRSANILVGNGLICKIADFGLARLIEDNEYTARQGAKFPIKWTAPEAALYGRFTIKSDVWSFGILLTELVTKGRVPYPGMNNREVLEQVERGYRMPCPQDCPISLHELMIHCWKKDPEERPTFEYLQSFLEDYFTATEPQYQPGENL

Sequence of GSK3β(h) (P49841 whole entry): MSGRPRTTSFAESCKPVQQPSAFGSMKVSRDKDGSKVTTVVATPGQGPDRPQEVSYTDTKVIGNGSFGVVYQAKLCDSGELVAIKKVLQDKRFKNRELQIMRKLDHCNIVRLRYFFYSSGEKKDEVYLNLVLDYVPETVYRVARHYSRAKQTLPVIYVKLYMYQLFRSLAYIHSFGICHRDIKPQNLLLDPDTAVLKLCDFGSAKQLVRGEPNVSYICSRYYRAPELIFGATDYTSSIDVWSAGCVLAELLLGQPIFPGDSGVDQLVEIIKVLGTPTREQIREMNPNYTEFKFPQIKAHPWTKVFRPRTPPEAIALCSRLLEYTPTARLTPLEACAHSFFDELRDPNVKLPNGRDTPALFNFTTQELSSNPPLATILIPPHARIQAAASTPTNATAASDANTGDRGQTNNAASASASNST

| SMILES | remaining activity at 10 µM [1] | Neurosphere number (object count per image), neurogenesis [2] | Papp A→B at 90 min, 100 μM [3] | Mechanism of Fyn inhibition with respect to ATP [4] |
| --- | --- | --- | --- | --- |
| Br.Cc1sc(NCc2ccccc2)nc1-c1c[nH]c2ncc(Br)cc12 [Compound 41, N-Benzyl-4-(5-bromo-1H-pyrrolo[2,3-b]pyridin-3-yl)-5-methylthiazol-2-amine Hydrobromide] | 58% |  |  |  |
| Br.Cc1sc(NCc2ccnc(Cl)c2)nc1-c1c[nH]c2ncccc12 [Compound 43, N-((2-Chloropyridin-4-yl)methyl)-5-methyl-4-(1H-pyrrolo[2,3-b]pyridin-3-yl)thiazol-2-amine Hydrobromide] |  | not effective | 32 ± 5.38 ×10⁻⁶ cm/s | competitive inhibition with respect to ATP |
